Test system: yeast genes (expressed mRNA)
Assay: DNA chip measurement of expressed mRNA of yeast genes after culture with a toxic chemical substance
Format: cell-based, Saccharomyces cerevisiae S288C
Details: for level of expressed mRNA in the presence of chemical substance / level in the absence of chemical substance: cultured two hours with the chemical substance; for The level of expressed mRNA in the presence of chemical substance/The level of expressed mRNA in the absence of chemical substance: cultured two hours with substance
Experimental: Yeast (Saccharomyces cerevisiae S288C (a SUC2mal mel gap2 CUP1)) were cultured at 25° C. on YPD medium (yeast extract 1%, polypeptone 2%, glucose 2%). One of toxic chemical substances was added to the cell at logarithmic growth phase, and the cell was further cultured for two hours. Cell was cultured without any chemical substance in the same condition, and was used as a control. Concentrations of the chemical substances were defined to inhibit the growth of the yeast but not lead to death.
After the completion of cultivation, the culture was centrifuged to collect the cells. To the cells, sodium acetate buffer (50 mM sodium acetate, 10 mM EDTA, 1% SDS) was added, and the mixture was shaken at 65° C. for five minutes, followed by returning to room temperature, and obtaining the supernatant, which procedure was repeated two times. To the supernatant, ½ amount of a solution of phenol/chloroform (1:1) was added, and the mixture was centrifuged to give a supernatant, an equal amount of chloroform was added, and the mixture was centrifuged to give a supernatant. To the supernatant, an equal amount of isopropanol containing 0.3 M sodium acetate was added, and the mixture was allowed to stand at room temperature for 30 minutes, after which the mixture was centrifuged to give sediment of the whole RNAs. Seventy % ethanol was added to the sediment, and the mixture was again centrifuged to give sediment, which was then dried and dissolved in water. mRNA was isolated from the whole RNAs as followings. In view of the fact that a poly A chain is attached to the 3′ terminus of mRNA, a polynucleotide having a poly T structure which was immobilized on the surface of latex beads was used to trap the mRNA, and then the mRNA was washed and eluted with spine column (Oligotex-dT30<Super>mRNA Purification Kit, Takara). Reverse transcription of the mRNA was conducted with a reverse transcriptase (Super Script II Reverse Transcriptase; catalogue No. 18064-014, GibcoBRL) using fluorescence-labeled nucleotides to give cDNAs that were introduced with Cy3-dUTP or Cy5-dUTP during the reverse transcription.
The labeled cDNAs were dissolved in TE buffer (10 mM Tris-HCl/1 mM EDTA, pH 8.0), and the solution was dropped on the DNA chip containing the whole genes of yeast (DNA Chip Research Inc. Japan) so that the cDNAs were hybridized on the DNA chip at 65° C. for over 12 hours. The fluoresces intensity of the DNA chip was read with a scanner, and the ratio relative to the fluorescence intensity resulting from the absence of chemical substance was estimated as the following, which is shown in Tables 1 to 9.
In the Tables, “Intensity” indicated in the rightmost column is a value of the level of expressed mRNA of each gene in control cells as divided by the average level of the expressions of the whole genes. A gene of which mRNA level is lower in control, and is higher in cases of addition of chemical substance, is especially useful in the detection of toxic substances.
Here, when a ratio of an amount of mRNA expressed in the presence of the chemical substance to an amount of mRNA expressed in the absence of the chemical substance is two or more, then it is considered significant.

Question: Which results are given for Cl[C@H]1[C@H](Cl)[C@@H](Cl)[C@@H](Cl)[C@H](Cl)[C@H]1Cl [(7), γ-Hexachlorocyclohexane]?
Answer: level of expressed mRNA in the presence of chemical substance / level in the absence of chemical substance (yeast gene YNL058C): 0.7; level of expressed mRNA in the presence of chemical substance / level in the absence of chemical substance (yeast gene YNL063W): 1.4; The level of expressed mRNA in the presence of chemical substance/The level of expressed mRNA in the absence of chemical substance (yeast gene YNL074C): 1.1; The level of expressed mRNA in the presence of chemical substance/The level of expressed mRNA in the absence of chemical substance (yeast gene YNL092W): 1.6; The level of expressed mRNA in the presence of chemical substance/The level of expressed mRNA in the absence of chemical substance (yeast gene YNL115C): 2.4; The level of expressed mRNA in the presence of chemical substance/The level of expressed mRNA in the absence of chemical substance (yeast gene YNL156C): 1.9; level of expressed mRNA in the presence of chemical substance / level in the absence of chemical substance (yeast gene YNL176C): 0.7; level of expressed mRNA in the presence of chemical substance / level in the absence of chemical substance (yeast gene YNL194C): 1.5; level of expressed mRNA in the presence of chemical substance / level in the absence of chemical substance (yeast gene YNL200C): 1.2; The level of expressed mRNA in the presence of chemical substance/The level of expressed mRNA in the absence of chemical substance (yeast gene YNL234W): 1.2; level of expressed mRNA in the presence of chemical substance / level in the absence of chemical substance (yeast gene YNL253W): 1.3; level of expressed mRNA in the presence of chemical substance / level in the absence of chemical substance (yeast gene YNL276C): 0.9; The level of expressed mRNA in the presence of chemical substance/The level of expressed mRNA in the absence of chemical substance (yeast gene YNL281W): 1.2; The level of expressed mRNA in the presence of chemical substance/The level of expressed mRNA in the absence of chemical substance (yeast gene YNL305C): 1.7; level of expressed mRNA in the presence of chemical substance / level in the absence of chemical substance (yeast gene YNR051C): 1.3; The level of expressed mRNA in the presence of chemical substance/The level of expressed mRNA in the absence of chemical substance (yeast gene YNR068C): 1.8; level of expressed mRNA in the presence of chemical substance / level in the absence of chemical substance (yeast gene YOL026C): 1.8; The level of expressed mRNA in the presence of chemical substance/The level of expressed mRNA in the absence of chemical substance (yeast gene YOL032W): 1.4; The level of expressed mRNA in the presence of chemical substance/The level of expressed mRNA in the absence of chemical substance (yeast gene YOL036W): 1.0; The level of expressed mRNA in the presence of chemical substance/The level of expressed mRNA in the absence of chemical substance (yeast gene YOL047C): 1.3; The level of expressed mRNA in the presence of chemical substance/The level of expressed mRNA in the absence of chemical substance (yeast gene YOL071W): 2.0; The level of expressed mRNA in the presence of chemical substance/The level of expressed mRNA in the absence of chemical substance (yeast gene YOL082W): 2.5; The level of expressed mRNA in the presence of chemical substance/The level of expressed mRNA in the absence of chemical substance (yeast gene YOL083W): 3.1; The level of expressed mRNA in the presence of chemical substance/The level of expressed mRNA in the absence of chemical substance (yeast gene YOL117W): 1.6; The level of expressed mRNA in the presence of chemical substance/The level of expressed mRNA in the absence of chemical substance (yeast gene YOL131W): 1.3; The level of expressed mRNA in the presence of chemical substance/The level of expressed mRNA in the absence of chemical substance (yeast gene YOL150C): 2.4; The level of expressed mRNA in the presence of chemical substance/The level of expressed mRNA in the absence of chemical substance (yeast gene YOL162W): 2.0; The level of expressed mRNA in the presence of chemical substance/The level of expressed mRNA in the absence of chemical substance (yeast gene YOR019W): 2.8; level of expressed mRNA in the presence of chemical substance / level in the absence of chemical substance (yeast gene YOR022C): 1.6; level of expressed mRNA in the presence of chemical substance / level in the absence of chemical substance (yeast gene YOR087W): 0.9; level of expressed mRNA in the presence of chemical substance / level in the absence of chemical substance (yeast gene YOR138C): 1.1; The level of expressed mRNA in the presence of chemical substance/The level of expressed mRNA in the absence of chemical substance (yeast gene YOR197W): 0.9; level of expressed mRNA in the presence of chemical substance / level in the absence of chemical substance (yeast gene YOR253W): 1.3; level of expressed mRNA in the presence of chemical substance / level in the absence of chemical substance (yeast gene YOR267C): 0.9; level of expressed mRNA in the presence of chemical substance / level in the absence of chemical substance (yeast gene YOR325W): 1.2; level of expressed mRNA in the presence of chemical substance / level in the absence of chemical substance (yeast gene YPL005W): 2.0; The level of expressed mRNA in the presence of chemical substance/The level of expressed mRNA in the absence of chemical substance (yeast gene YPL087W): 4.2; level of expressed mRNA in the presence of chemical substance / level in the absence of chemical substance (yeast gene YPL150W): 1.2; level of expressed mRNA in the presence of chemical substance / level in the absence of chemical substance (yeast gene YPL152W): 1.3; level of expressed mRNA in the presence of chemical substance / level in the absence of chemical substance (yeast gene YPL168W): 1.2; level of expressed mRNA in the presence of chemical substance / level in the absence of chemical substance (yeast gene YPL180W): 1.0; level of expressed mRNA in the presence of chemical substance / level in the absence of chemical substance (yeast gene YPL188W): 1.3; The level of expressed mRNA in the presence of chemical substance/The level of expressed mRNA in the absence of chemical substance (yeast gene YPL196W): 2.4; The level of expressed mRNA in the presence of chemical substance/The level of expressed mRNA in the absence of chemical substance (yeast gene YPL206C): 1.2; level of expressed mRNA in the presence of chemical substance / level in the absence of chemical substance (yeast gene YPL221W): 1.3; The level of expressed mRNA in the presence of chemical substance/The level of expressed mRNA in the absence of chemical substance (yeast gene YPL222W): 1.1; level of expressed mRNA in the presence of chemical substance / level in the absence of chemical substance (yeast gene YPL225W): 1.7; The level of expressed mRNA in the presence of chemical substance/The level of expressed mRNA in the absence of chemical substance (yeast gene YPR023C): 1.2; level of expressed mRNA in the presence of chemical substance / level in the absence of chemical substance (yeast gene YPR049C): 1.1; level of expressed mRNA in the presence of chemical substance / level in the absence of chemical substance (yeast gene YPR146C): 1.0; level of expressed mRNA in the presence of chemical substance / level in the absence of chemical substance (yeast gene YPR148C): 1.6; The level of expressed mRNA in the presence of chemical substance/The level of expressed mRNA in the absence of chemical substance (yeast gene YPR151C): 4.4; level of expressed mRNA in the presence of chemical substance / level in the absence of chemical substance (yeast gene YPR172W): 1.2

— patent US20100041089A1, “IMPROVED METHOD FOR DETECTING CHEMICAL […]” (priority 2006, published 2010)
